{"source": "patent EP0363671A2", "about": "“Use of ACE inhibitors against the formation of neo-intima after vascular infliction” (F. HOFFMANN-LA ROCHE AG, priority 1988, dated 1990)", "key": {"[1]": {"system": "Neointima in der ballonisierten Arteria carotis", "assay": "Neointima formation after balloon catheter injury (ballooning) of the carotid artery, morphometry of cross-sections 14 days later", "type": "in vivo, Ratten, Stamm: RORO", "description": "Eine Arterie wird mit Hilfe eines Ballonkatheters, der durch das Gefässlumen geschoben wird, von innen verletzt (Ballonisierung). Dabei wird die innerste Zellschicht, das Endothel, entfernt und die Muskelzellen der Media leicht geschädigt. Die Muskelzellen werden dadurch zur Proliferation und Migration in die Intima angeregt. […] Das Ausmass der Neointimabildung wird anschliessend an Querschnitten durch die Arterie mit Hilfe morphometrischer Methoden ausgemessen.\nDie Tiere wurden randomisiert in eine Kontrollgruppe und in eine Behandlungsgruppe eingeteilt. Es wurden je 11 Tiere als Kontroll- bzw. behandelte Tiere eingesetzt.\nDie Tiere der Behandlungsgruppe erhielten 20 Tage lang soviel Cilazapril dem Futter beigemischt, dass die tägliche Cilazaprilaufnahme durchschnittlich 10 mg/kg betrug. […] Die Kontrolltiere erhielten das gleiche Laborfutter ohne Zusatz. Die Ballonisierung der Arteria carotis communis wurde 6 Tage nach der ersten Gabe von Cilazapril durchgeführt. Die Tiere wurden mit Aetherinhalation und subcutaner Verabreichung von 200 mg/kg Hexobarbital-Na narkotisiert. Die distale linke Arteria carotis communis und das Bifurkationsgebiet von Carotis externa und interna wurden freigelegt. Der FOGARTY-Katheter (12-060-2F, Edwards Laboratories, Santa Anna, CA, USA) wurde durch die Arteria carotis externa in die Arteria carotis communis bis zum Aortenbogen eingeführt, der Ballon mit Wasser gefüllt (Füllungsvolumen ca. 0,01-0,015 ml) und gegen einen leichten Widerstand zurückgezogen. Dieses Procedere wurde zweimal wiederholt. Die Arteria carotis externa wurde ligiert und die Wunde vernäht. Die Operateure hatten keine Kenntnis, ob es sich um behandelte oder unbehandelte Tiere handelte.\n14 Tage nach der Ballonisierung wurden die Ratten mit Aether anaesthesiert und die Carotiden durch Perfusion mit Fixationsmittel (2,5% Glutaraldehyd in 0,1 M Phosphatpuffer, pH 7,4), fixiert. Hierzu wurde eine Sonde durch den linken Herzventrikel in die aufsteigende Aorta geführt (Einfluss) und eine zweite Sonde durch den rechten Ventrikel in den Vorhof geschoben (Abfluss). Das Gefässsystem wurde zunächst mit 10 ml PBS (\"phosphate buffered saline\"; gepufferte isotonische NaCI-Lösung) gespült und dann 15 min lang mit Fixationsmittel bei einem Druck von 90 mm Quecksilbersäule fixiert. Anschliessend wurden sowohl die linke (ballonisierte) als auch die rechte (nicht-ballonisierte) Arteria carotis (Kontrolle) herauspräpariert, von Gewebe befreit und zur weiteren Fixation in 2,5% Glutaraldehyd in 0,1 M Cacodylat-Puffer eingelegt. […] Das mittlere Segment wurde für die morphologischen Untersuchungen verwendet.\nSemidünne Querschnitte (1 µm dick) wurden mit Toluidinblau und basischem Fuchsin gefärbt.\nAus diesen Messungen wurden folgende Parameter berechnet: • (6) Die mittlere Dicke der Neointima in um, berechnet als Kreisring aus der Querschnittsfläche der Neointima. Hierzu wurde der Neointimaquerschnitt in einen Kreisring transformiert, dessen äussere Begrenzung die Lamina elastica interna bildete. • (7) Die Querschnittsfläche der Neointima zur Querschnittsfläche der Media in Prozent (normalisierte Neointimafläche) • (8) Der Prozentsatz der mit Neointima bedeckten Lamina elastica interna."}, "[2]": {"assay": "Lowering of systolic blood pressure by the dose mixed into the feed", "type": "in vivo, Ratten, Stamm: RORO", "conditions": "average daily intake 10 mg/kg mixed into feed", "protocol": "Die Tiere der Behandlungsgruppe erhielten 20 Tage lang soviel Cilazapril dem Futter beigemischt, dass die tägliche Cilazaprilaufnahme durchschnittlich 10 mg/kg betrug. Es handelt sich um eine Dosierung, die den systolischen Blutdruck um ca. 25% senkte. Die Kontrolltiere erhielten das gleiche Laborfutter ohne Zusatz. Die Ballonisierung der Arteria carotis communis wurde 6 Tage nach der ersten Gabe von Cilazapril durchgeführt. Die Tiere wurden mit Aetherinhalation und subcutaner Verabreichung von 200 mg/kg Hexobarbital-Na narkotisiert. Die distale linke Arteria carotis communis und das Bifurkationsgebiet von Carotis externa und interna wurden freigelegt. Der FOGARTY-Katheter (12-060-2F, Edwards Laboratories, Santa Anna, CA, USA) wurde durch die Arteria carotis externa in die Arteria carotis communis bis zum Aortenbogen eingeführt, der Ballon mit Wasser gefüllt (Füllungsvolumen ca. 0,01-0,015 ml) und gegen einen leichten Widerstand zurückgezogen. Dieses Procedere wurde zweimal wiederholt. Die Arteria carotis externa wurde ligiert und die Wunde vernäht. Die Operateure hatten keine Kenntnis, ob es sich um behandelte oder unbehandelte Tiere handelte."}, "[3]": {"conditions": "versus untreated control animals, about 10 mg/kg daily in feed, 14 days after ballooning"}}}
{"smiles": "CCOC(=O)[C@H](CCc1ccccc1)N[C@H]1CCCN2CCC[C@@H](C(=O)O)N2C1=O", "note": "[Cilazapril]", "values": [{"measurement": "Mittlere Dicke der Neointima", "setting": "[1]; calculated as circular ring from the neointima cross-sectional area, mean ± SD, n = 11, about 10 mg/kg daily in feed, 14 days after ballooning, controls 50 ± 25", "value": "8±7", "unit": "µm"}, {"measurement": "Querschnittsfläche des Lumens", "setting": "[1]; mean ± SD, n = 11, about 10 mg/kg daily in feed for 20 days, 14 days after ballooning, untreated controls 324 x 10^3", "value": "468 x 10^3±114 x 10^3 µm^2"}, {"measurement": "Prozentsatz von mit Neointima bedeckter Lamina elastica interna", "setting": "[1]; mean ± SD, n = 11, about 10 mg/kg daily in feed, 14 days after ballooning, controls 93 ± 15", "value": "35±29", "unit": "%"}, {"measurement": "Querschnittsfläche der Neointima", "setting": "[1]; mean ± SD, n = 11, cilazapril about 10 mg/kg daily in feed for 20 days, ballooning on day 6, left carotid fixed 14 days after ballooning, untreated controls 109 x 10^3", "value": "20 x 10^3±18 x 10^3 µm^2"}, {"measurement": "Verhältnis von Querschnittsfläche der Neointima zu Querschnittsfläche der Media", "setting": "[1]; normalised neointima area, mean ± SD, n = 11, about 10 mg/kg daily in feed, 14 days after ballooning, controls 101 ± 43", "value": "23±21", "unit": "%"}, {"measurement": "Tiere mit vollständig gehemmter Neointimabildung", "setting": "[1]; number of treated animals out of 11, about 10 mg/kg daily in feed, 14 days after ballooning", "value": 3, "unit": "von 11"}, {"measurement": "Hemmung (Querschnittsfläche der Neointima)", "setting": "[1]; [3]", "value": 82, "unit": "%"}, {"measurement": "Hemmung (mittlere Dicke der Neointima)", "setting": "[1]; [3]", "value": 84, "unit": "%"}, {"measurement": "Senkung des systolischen Blutdrucks", "setting": "[2]", "value": "ca. 25%"}]}
